Test results reported in US7342000B2, “Semisynthetic macrolide antibiotics of the azalide series” (GlaxoSmithKline istrazivacki center Zagreb, priority 2002, dated 2008).

What was measured:
Assay in all cases: MIC by broth dilution (NCCLS M7-A2)
Type in all cases: cell-based
Details in all cases: 90% growth inhibition
S. pneumoniae = system: S. pneumoniae
Excerpt: (§1) MIC levels for all compound were determinated on panel of susceptible, and resistant Gram positive bacterial strains (S. aureus, S. pneumoniae and S. pyogenes) and on Gram negative strains (E. coli, H. influenzae, […], M. catarrhalis).

H. influenzae ATCC 49247 = system: H. influenzae ATCC 49247
Excerpt: as §1

S. aureus ATCC 13709 = system: S. aureus ATCC 13709
Excerpt: as §1

S. pyogenes = system: S. pyogenes
Excerpt: as §1

S. pyogenes iMLS = system: S. pyogenes iMLS
Excerpt: as §1

S. pyogenes M = system: S. pyogenes M
Excerpt: as §1

[1] = system: M. catarrhalis ATCC 23246
Excerpt: as §1

E. coli ATCC 25922 = system: E. coli ATCC 25922
Excerpt: as §1

E. faecalis ATCC 29212 = system: E. faecalis ATCC 29212
Excerpt: as §1

Compound	MIK (S. pneumoniae)	MIK (H. influenzae ATCC 49247) [µg/mL]	MIK (S. aureus ATCC 13709) [µg/mL]	MIK (S. pyogenes)	MIK (S. pyogenes iMLS) [µg/mL]	MIK (S. pyogenes M) [µg/mL]	MIK [1] [µg/mL]	MIK (E. coli ATCC 25922) [µg/mL]	MIK (E. faecalis ATCC 29212) [µg/mL]
CC[C@H]1OC(=O)[C@H](C)[C@@H](O[C@H]2C[C@@](C)(OC)[C@@H](O)[C@H](C)O2)[C@H](C)[C@@H](O[C@@H]2O[C@H](C)C[C@H](N(C)C)[C@H]2O)[C@](C)(O)C[C@@H](C)CN(CCCNC(=O)N(CCC#N)c2ccccc2C(F)(F)F)[C@H](C)[C@@H](O)[C@]1(C)O [Example 32, 9-Deoxo-9-dihydro-9a-N-[N′-(β-cyanoethyl)-N′-(2-(trifluoromethyl)phenyl)carbamoyl-γ-aminopropyl]-9a-aza-homoerithromycin A]	≦0.125 μg/ml	16	4	≦0.125 μg/ml	8	32	8	32	64
9-Deoxo-9-dihydro-9a-N-{N′-(β-cyanoethyl)-N′-[1-(1-naphtyl)ethyl]carbamoyl-γ-aminopropyl}-9a-aza-9a-homoerithromycin A [Example 36]	≦0.125 μg/ml	2	2	≦0.125 μg/ml	8	16	4	64	16
CCOC(=O)CNC(=O)NCCCN1CC(C)CC(C)(O)C(OC2OC(C)CC(N(C)C)C2O)C(C)C(OC2CC(C)(OC)C(O)C(C)O2)C(C)C(=O)OC(CC)C(C)(O)C(O)C1C (stereo not drawn) [Example 9, 9-Deoxo-9-dihydro-9a-N-(N′-ethoxycarbonylmethylcarbamoyl-γ-aminopropyl)-9a-aza-9a-homoerithromycin A]	≦0.125 μg/ml	32	8	≦0.125 μg/ml	16	64	4	>64	>64
CC[C@H]1OC(=O)[C@H](C)[C@@H](O[C@H]2C[C@@](C)(OC)[C@@H](O)[C@H](C)O2)[C@H](C)[C@@H](O[C@@H]2O[C@H](C)C[C@H](N(C)C)[C@H]2O)[C@](C)(O)C[C@@H](C)CN(CCCNC(=O)NCc2ccccc2)[C@H](C)[C@@H](O)[C@]1(C)O [Example 3, 9-Deoxo-9-dihydro-9a-N-(N′-benzylcarbamoyl-γ-aminopropyl)-9a-aza-9a-homoerithromycin A]	≦0.125 μg/ml	2	0.5	≦0.125 μg/ml	4	8	1	16	16
CC[C@H]1OC(=O)[C@H](C)[C@@H](O[C@H]2C[C@@](C)(OC)[C@@H](O)[C@H](C)O2)[C@H](C)[C@@H](O[C@@H]2O[C@H](C)C[C@H](N(C)C)[C@H]2O)[C@](C)(O)C[C@@H](C)CN(CCCNC(=O)Nc2ccccc2C(F)(F)F)[C@H](C)[C@@H](O)[C@]1(C)O [Example 6, 9-Deoxo-9-dihydro-9a-N-[N′-(2-trifluoromethyl)phenylcarbamoyl-γ-aminopropyl]-9a-aza-9a-homoerithromycin A]	≦0.125 μg/ml	16	2	≦0.125 μg/ml	8	32	8	32	64
9-Deoxo-9-dihydro-9a-N-[N′-(β-cyanoethyl)-N′-(2,4-dichlorophenyl)carbamoyl-γ-aminopropyl]-9a-aza-9a-homoerithromycin A [Example 39]	≦0.125 μg/ml	16	1	≦0.125 μg/ml	32	64	16	>64	>64
CC[C@H]1OC(=O)[C@H](C)[C@@H](O[C@H]2C[C@@](C)(OC)[C@@H](O)[C@H](C)O2)[C@H](C)[C@@H](O[C@@H]2O[C@H](C)C[C@H](N(C)C)[C@H]2O)[C@](C)(O)C[C@@H](C)CN(CCCNC(=O)N(CCC#N)c2cccc3ccccc23)[C@H](C)[C@@H](O)[C@]1(C)O [Example 28, 9-Deoxo-9-dihydro-9a-N-[N′-(β-cyanoethyl)-N′-(1-naphtyl)carbamoyl-γ-aminopropyl]-9a-aza-9a-homoerithromycin A]	≦0.125 μg/ml	1	1	≦0.125 μg/ml	2	4	0.25	8	4
9-Deoxo-9-dihydro-9a-N-[N′-(β-cyanoethyl)-N′-benzylcarbamoyl-γ-aminopropyl]-9a-aza-9a-homoerithromycin A [Example 29]	≦0.125 μg/ml	32	2	≦0.125 μg/ml	16	64	4	>64	>64
9-Deoxo-9-dihydro-9a-N-[N′-(β-cyanoethyl)-N′-isopropylcarbamoyl-γ-aminopropyl]-9a-aza-9a-homorithromycin A [Example 27]	≦0.125 μg/ml	32	4	≦0.125 μg/ml	8	32	0.5	16	32
9-Deoxo-9-dihydro-9a-N-[N′-(β-cyanoethyl)-N′-(β-phenylethyl)thiocarbamoyl-γ-aminopropyl]-9a-aza-9a-homoerithromycin A [Example 34]	≦0.125 μg/ml	2	1	≦0.125 μg/ml	4	8	1	32	16
CC[C@H]1OC(=O)[C@H](C)[C@@H](O[C@H]2C[C@@](C)(OC)[C@@H](O)[C@H](C)O2)[C@H](C)[C@@H](O[C@@H]2O[C@H](C)C[C@H](N(C)C)[C@H]2O)[C@](C)(O)C[C@@H](C)CN(CCCNC(=O)Nc2cccc3ccccc23)[C@H](C)[C@@H](O)[C@]1(C)O [Example 2, 9-Deoxo-9-dihydro-9a-N-[N′-(1-naphtyl)carbamoyl-γ-aminopropyl]-9a-aza-9a-homoerithromycin A]	≦0.125 μg/ml	1	0.5	≦0.125 μg/ml	2	4	0.25	8	4
